Measurements from patent US20040057908A1, “Oral compositions and use thereof” (priority 2003, published 2004).
Values after ≈ are worked out from the molar mass of the structure shown. Read-outs that look alike come from different tables or passages of the source. Blank lines part the entries; values can stand above or below the compound they belong to.

Columns and labels:
[1] = test system: Streptococcus mutans GS-5; test: MIC and MBC, broth dilution; type: cell-based
Procedure: (§1) The minimum inhibitory concentration (MIC) and minimum bactericidal concentration (MBC) were determined for each test compound according to the National Committee for Clinical Laboratory Standards guidelines (Tentative standard M26-T, 1992; NCCLS Publication No. M7-A5, 2000) and Koo et al. (2000b). The broth microdilution and macrodilution methods (in TSB) were used for the antibacterial tests. The starting inoculum was 5×10^5 CFU/ml and the concentrations of test compounds ranged from 15.6 to 500 μM (two-fold dilutions). The MICs and MBCs were determined in quadruplicate in at least 3 different experiments.

[2] = test system: Streptococcus mutans UA 159; test: MIC and MBC, broth dilution; type: cell-based
Procedure: as §1

[3] = test system: Streptococcus sobrinus 6715; test: MIC and MBC, broth dilution; type: cell-based; settings: Streptococcus sobrinus 6715
Procedure: as §1

[4] = test system: Mutans Streptococci Strains; test: MIC and MBC, broth dilution, all strains stated together; type: cell-based, S. mutans (GS-5 and UA159) and S. sobrinus 6715
Procedure: as §1

[5] = Streptococcus mutans, all strains tested (S. mutans GS-5, UA159, S. sobrinus 6715), read-out: MIC

SMILES: COc1cc(O)c2c(c1)O[C@H](c1ccc(O)cc1)CC2=O [Sakuranetin]
MBC [1]: >500 µM | MIC [1]: >500 µM | MBC [2]: >500 µM | MIC [2]: >500 µM | MBC [3]: >500 µM | MIC [3]: 500 µM (≈ 143 µg/mL)

MIC [4, 5]: > 500 µM
SMILES: COc1cc(C=O)ccc1O [Vanillin]

SMILES: COc1cc(C=O)cc(OC)c1O [Syringaldehyde]
MIC ([4]; Streptococcus mutans): > 500 µM

SMILES: O=c1cc(-c2ccccc2)oc2cc(O)c(O)c(O)c12 [Baicalein]
MBC [1]: >500 µM | MIC [1]: 500 µM (≈ 135 µg/mL) | MBC [2]: >500 µM | MIC [2]: 500 µM (≈ 135 µg/mL) | MBC [3]: >500 µM | MIC [3]: 500 µM (≈ 135 µg/mL) | MIC ([4]; all strains tested (S. mutans GS-5, UA159, S. sobrinus 6715), read-out: MIC): 500 µM (≈ 135 µg/mL)

MIC [4, 5]: > 500 µM
SMILES: O=C(O)/C=C/c1ccc(O)c(O)c1 [Caffeic acid]

SMILES: O=c1cc(-c2ccc(O)c(O)c2)oc2cc(O)cc(O)c12 [Luteolin]
MIC [4, 5]: > 500 µM
